Biological target: T1, recombinant human IL17a (binding to its receptor IL17R) (Homo sapiens, UniProt Q16552)
T1 construct: purchased R&D Systems 317-ILB (IL17a); 177-IR (IL17R/Fc)
T1 sequence (Q16552 20-155 limits assumed): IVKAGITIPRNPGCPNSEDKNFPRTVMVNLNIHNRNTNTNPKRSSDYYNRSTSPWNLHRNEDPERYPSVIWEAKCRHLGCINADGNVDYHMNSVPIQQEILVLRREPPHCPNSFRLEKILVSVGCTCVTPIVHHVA
Assay: IL-17 competition ELISA I (IL17a coated, IL17R/Fc binding)
Experimental: ELISA I: The ability of the compounds to block binding of IL17a to its receptor, IL17R, was analyzed in a competition ELISA format. High binding 96-well plates (Costar #9018) were coated with 20 nM of recombinant human IL17a (R&D Systems #317-ILB) in PBS (0.64 μg/mL), 100 μL/well, for 30 min at 37′C followed by 5 min at 4′C. Plates were then washed in PBST (PBS/0.05% Tween-20) on a plate washer, (Biotech EL-450) blocked with protein-free blocking buffer (Thermo Scientific #37573) in 250 μL/well for 30 min on shaker at room temperature, and then washed again. Compound dilutions prepared in PBST were added into the wells in duplicates followed by the addition of IL17R/Fc (R&D Systems #177-IR) at a final concentration of 12 nM. Plates were then incubated for 30 min at room temperature on the shaker. Wells with no compound served as a positive “no competitor” control, while wells with no IL17R/Fc and no compound served as a blank negative control. After an additional PBST wash, 50 ng/mL HRP-conjugated goat anti-human Fc IgG (KPL #04-10-20) was added to the plate for 30 min at room temperature, followed by PBST wash and addition of SureBlue™ TMB (KPL #52-00-03). After the sufficient color development, the reaction was fixed by the addition of 100 μL/well 0.5 N HCl and absorbance was measured at 450 nm on Biotek plate reader.
Data were processed using BioAssay Enterprise v10.1.4 (CambridgeSoft) software. Linear OD λ450 were plotted against log concentration (x) and fitted to a 4-parameter logistic equation. IC50 was calculated using positive ‘no competitor’ control data as an upper limit and blank control as a lower limit in each assay.

Row | IC50 [nM] | Structure (SMILES)
1 | 100 to 1000 | O=C1CNC(=O)[C@@H](Cc2ccc(NC(=O)[C@H](Cc3ccc(F)cc3Cl)NC(=O)c3ccc(F)cc3)cc2)NC(=O)CC2(CCCC2)CC(=O)NCCOCCN1 [Compound 324]
2 | < 100 | O=C1CNC(=O)[C@@H](Cc2ccc(NC(=O)[C@H](Cc3ccccc3Cl)NC(=O)Cc3ccc(F)cc3F)cc2)NC(=O)CC2(CCCC2)CC(=O)NCCCCCN1 [Compound 296]
3 | < 100 | O=C1CNC(=O)[C@@H](Cc2ccc(NC(=O)[C@H](Cc3ccccc3Cl)NC(=O)Cc3cccc(O)c3)cc2)NC(=O)CC2(CCCC2)CC(=O)NCCCCCN1 [Compound 217]
4 | 100 to 1000 | O=C1CNC(=O)[C@@H](Cc2ccc(NC(=O)[C@H](Cc3ccccc3Cl)NC(=O)c3ccc(CO)cc3)cc2)NC(=O)CC2(CCCC2)CC(=O)NCCCCCN1 [Compound 219]
5 | 1000 to 10000 | CN(C(=O)Cc1ccccc1)[C@@H](Cc1ccccc1)C(=O)Nc1ccc(C[C@H]2NC(=O)CC3(CCCC3)CC(=O)NCCCCCNC(=O)CNC2=O)cc1 [Compound 238]
6 | 1000 to 10000 | O=C1CNC(=O)[C@@H](Cc2ccc(NC(=O)[C@H](NC(=O)Cc3ccccc3)C3CCCCC3)cc2)NC(=O)CC2(CCCC2)CC(=O)NCCCCCN1 [Compound 315]
7 | 100 to 1000 | CN1CCCCCNC(=O)CC2(CCCC2)CC(=O)N[C@H](Cc2ccc(NC(=O)[C@@H](NC(=O)Cc3ccc(CO)cc3)C3CCCCC3)cc2)C(=O)NCC1=O [Compound 351]
8 | 100 to 1000 | O=C1CNC(=O)[C@@H](Cc2ccc(NC(=O)[C@H](Cc3ccccc3Cl)NC(=O)C3CCOCC3)cc2)NC(=O)CC2(CCCC2)CC(=O)NCCCCCN1 [Compound 220]
9 | 100 to 1000 | O=C1CNC(=O)[C@@H](Cc2ccc(NC(=O)[C@H](Cc3ccccc3Cl)NC(=O)c3cc(F)c(F)cc3F)cc2)NC(=O)CC2(CCCC2)CC(=O)NCCCCCN1 [Compound 329]
10 | 100 to 1000 | CC1(C)CC(=O)NCCCCCNC(=O)CNC(=O)[C@@H](Cc2ccc(NC(=O)[C@H](CC3CCC3)NC(=O)Cc3ccccc3)cc2)NC(=O)C1 [Compound 247]
11 | 1000 to 10000 | C[C@@H]1C(=O)NCCCCCNC(=O)CC2(CCCC2)CC(=O)N[C@H](Cc2ccc(NC(=O)[C@H](Cc3ccccc3Cl)NC(=O)Cc3ccccc3)cc2)C(=O)N1C [Compound 289]
12 | > 10000 | CC(=O)N[C@@H](Cc1cccs1)C(=O)Nc1ccc(C[C@H]2NC(=O)CC(C)(C)CC(=O)NCCCCCNC(=O)CNC2=O)cc1 [Compound 256]
13 | 100 to 1000 | O=C1CC2(CCCC2)CC(=O)N[C@H](Cc2ccc(NC(=O)[C@H](Cc3ccccc3Cl)NC(=O)Cc3ccccc3)cc2)C(=O)NCC(=O)OCCCCCN1 [Compound 318]
14 | < 100 | O=C1CNC(=O)[C@@H](Cc2ccc(NC(=O)[C@H](Cc3ccccc3Cl)NC(=O)c3ccc(F)c(F)c3)cc2)NC(=O)CC2(CCCC2)CC(=O)NCCCCCN1 [Compound 297]
15 | 100 to 1000 | CC(C)(C)OC[C@@H]1NC(=O)[C@@H](Cc2ccc(NC(=O)[C@H](Cc3ccccc3Cl)NC(=O)Cc3ccccc3)cc2)NC(=O)CC2(CCCC2)CC(=O)NCCCCCNC1=O [Compound 320]
16 | 100 to 1000 | O=C1CC2(CCCC2)CC(=O)N[C@H](Cc2ccc(NC(=O)[C@H](Cc3ccccc3Cl)NC(=O)Cc3ccccc3)cc2)C(=O)N[C@@H](CO)C(=O)NCCCCCN1 [Compound 319]
17 | < 100 | COC(=O)[C@@H]1CCCCNC(=O)CNC(=O)[C@@H](Cc2ccc(NC(=O)[C@H](Cc3ccccc3Cl)NC(C)=O)cc2)NC(=O)CC2(CCCC2)CC(=O)N1 [Compound 248]
18 | < 100 | O=C1CNC(=O)[C@@H](Cc2ccc(NC(=O)[C@H](Cc3ccccc3Cl)NC(=O)c3cncnc3)cc2)NC(=O)CC2(CCCC2)CC(=O)NCCCCCN1 [Compound 327]
19 | < 100 | O=C1CNC(=O)[C@@H](Cc2ccc(NC(=O)[C@H](CC3CCCCC3)NC(=O)Cc3ccc(O)cc3)cc2)NC(=O)CC2(CCCC2)CC(=O)NCCCCCN1 [Compound 294]
20 | < 100 | COC(=O)[C@@H]1CCCCNC(=O)CNC(=O)[C@@H](Cc2ccc(NC(=O)[C@@H](NC(=O)Cc3ccccc3)C3CCCCC3)cc2)NC(=O)CC2(CCCC2)CC(=O)N1 [Compound 282]
21 | < 100 | O=C1CNC(=O)[C@@H](Cc2ccc(NC(=O)[C@H](Cc3ccc(Cl)cc3)NC(=O)Cc3ccccc3)cc2)NC(=O)CC2(CCCC2)CC(=O)NCCCCCN1 [Compound 240]
22 | 100 to 1000 | O=C1CNC(=O)[C@@H](Cc2ccc(NC(=O)[C@H](Cc3ccccc3Cl)NC(=O)c3ncco3)cc2)NC(=O)CC2(CCCC2)CC(=O)NCCCCCN1 [Compound 235]

Row | IC50 [nM] | Structure (SMILES)
23 | 100 to 1000 | C[C@@H](O)[C@@H]1NC(=O)[C@@H](Cc2ccc(NC(=O)[C@H](Cc3ccccc3Cl)NC(=O)Cc3ccccc3)cc2)NC(=O)CC2(CCCC2)CC(=O)NCCCCCNC1=O [Compound 321]
24 | 1000 to 10000 | O=C1CNC(=O)[C@@H](Cc2ccc(NC(=O)[C@H](Cc3ccccc3Cl)NC(=O)c3ccc(C(=O)O)cc3)cc2)NC(=O)CC2(CCCC2)CC(=O)NCCCCCN1 [Compound 299]
25 | < 100 | COC(=O)[C@@H]1CCCCNC(=O)CNC(=O)[C@@H](Cc2ccc(NC(=O)[C@H](Cc3ccccc3Cl)NC(=O)Cc3ccc(O)cc3)cc2)NC(=O)CC2(CCCC2)CC(=O)N1 [Compound 249]
26 | 1000 to 10000 | CC1(C)CC(=O)NCCCCCNC(=O)CNC(=O)[C@@H](Cc2ccc(NC(=O)[C@H](Cc3cccs3)NC(=O)Cc3ccccc3)cc2)NC(=O)C1 [Compound 255]
27 | 1000 to 10000 | CC(=O)N[C@H](C(=O)Nc1ccc(C[C@H]2NC(=O)CC(C)(C)CC(=O)NCCCCCNC(=O)CNC2=O)cc1)C1CCCCC1 [Compound 252]
28 | 100 to 1000 | O=C1CC2(CCCC2)CC(=O)N[C@H](Cc2ccc(NC(=O)[C@@H](NC(=O)Cc3ccc(CO)cc3)C3CCCCC3)cc2)C(=O)NCCCCCCCCN1 [Compound 337]
29 | 100 to 1000 | O=C1CNC(=O)[C@@H](Cc2ccc(NC(=O)[C@H](Cc3ccccc3Cl)NC(=O)c3ccc(F)c(F)c3F)cc2)NC(=O)CC2(CCCC2)CC(=O)NCCCCCN1 [Compound 328]
30 | 100 to 1000 | CN1CCCCCNC(=O)CC2(CCCC2)CC(=O)N[C@H](Cc2ccc(NC(=O)[C@H](Cc3ccccc3Cl)NC(=O)c3ccc(F)cc3)cc2)C(=O)NCC1=O [Compound 308]
31 | 1000 to 10000 | CC1(C)CC(=O)NCCCCCNC(=O)CNC(=O)[C@@H](Cc2ccc(NC(=O)[C@H](CC3CC3)NC(=O)Cc3ccccc3)cc2)NC(=O)C1 [Compound 245]
32 | 100 to 1000 | O=C1CNC(=O)[C@@H](Cc2ccc(NC(=O)[C@H](Cc3ccccc3Cl)NC(=O)CC3CCOCC3)cc2)NC(=O)CC2(CCCC2)CC(=O)NCCCCCN1 [Compound 275]
33 | 1000 to 10000 | CC1(C)CC(=O)NCCCCCNC(=O)CNC(=O)[C@@H](Cc2ccc(NC(=O)[C@H](Cc3cccs3)NC(=O)c3cccnc3)cc2)NC(=O)C1 [Compound 258]
34 | 100 to 1000 | CN1CCNC(=O)CNC(=O)[C@@H](Cc2ccc(NC(=O)[C@H](Cc3ccccc3Cl)NC(=O)Cc3ccccc3)cc2)NC(=O)CC2(CCCC2)CC(=O)NCC1 [Compound 323]
35 | 100 to 1000 | O=C1CNC(=O)[C@@H](Cc2ccc(NC(=O)[C@H](Cc3ccccc3Cl)NC(=O)c3cc(F)c(F)c(F)c3)cc2)NC(=O)CC2(CCCC2)CC(=O)NCCCCCN1 [Compound 326]
36 | 100 to 1000 | O=C1CCCCCNC(=O)CNC(=O)[C@@H](Cc2ccc(NC(=O)[C@H](Cc3ccccc3Cl)NC(=O)Cc3ccccc3)cc2)NC(=O)CC2(CCCCC2)CN1 [Compound 286]
37 | < 100 | O=C1CNC(=O)C(Cc2ccc(NC(=O)C(Cc3cccc(Cl)c3)NC(=O)Cc3ccccc3)cc2)NC(=O)CC2(CCCC2)CC(=O)NCCCCCN1 (centres unmarked) [Compound 239]
38 | 1000 to 10000 | O=C1CNC(=O)[C@@H](Cc2ccc(NC(=O)[C@H](Cc3ccccc3Cl)NS(=O)(=O)c3ccccc3)cc2)NC(=O)CC2(CCCC2)CC(=O)NCCCCCN1 [Compound 271]
39 | 1000 to 10000 | O=C1CC2(CCCC2)CC(=O)N[C@H](Cc2ccc(NC(=O)[C@@H](NC(=O)Cc3ccccc3)C3CCCCC3)cc2)C(=O)NCCCCCCCCN1 [Compound 334]
40 | 100 to 1000 | C[C@@H]1NC(=O)[C@@H](Cc2ccc(NC(=O)[C@H](Cc3ccccc3Cl)NC(=O)Cc3ccccc3)cc2)NC(=O)CC2(CCCC2)CC(=O)NCCCCCNC1=O [Compound 290]
41 | < 100 | O=C1CC2(CCCC2)CC(=O)N[C@H](Cc2ccc(NC(=O)[C@H](Cc3ccccc3Cl)NC(=O)Cc3ccc(O)cc3)cc2)C(=O)N[C@H](Cc2ccccc2)C(=O)NCCCCCN1 [Compound 262]
42 | 100 to 1000 | CC1(C)CC(=O)NCCCCCNC(=O)CNC(=O)[C@@H](Cc2ccc(NC(=O)[C@H](Cc3cccs3)NC(=O)Cc3ccc(O)cc3)cc2)NC(=O)C1 [Compound 257]
43 | 100 to 1000 | C=CCOC(=O)N1CCNC(=O)CNC(=O)[C@@H](Cc2ccc(NC(=O)[C@H](Cc3ccccc3Cl)NC(=O)Cc3ccccc3)cc2)NC(=O)CC2(CCCC2)CC(=O)NCC1 [Compound 284]
44 | 100 to 1000 | O=C1CNC(=O)[C@@H](Cc2ccc(NC(=O)[C@H](Cc3ccccc3Cl)NS(=O)(=O)Cc3ccccc3)cc2)NC(=O)CC2(CCCC2)CC(=O)NCCCCCN1 [Compound 272]
